The source of these data is US20010007657A1, “Compositions and methods for manipulating glial progenitor cells and treating neurological deficits” (priority 1997, published 2001).

Assay [1] deals with neural precursor cells of the subependymal zone. The assay can be described thus: Periventricular cellular expansion and striatal ridge formation (thionin, silver staining, immunohistochemistry). The format is in vivo, rat. The settings on record: for (incidence of striatal ridge) / Expansion (incidence of cellular expansion along ventricle): midstriatal infusion 0.5 μg/day. The method, then: Adult male Sprague-Dawley rats weighing 250-300 grams were used throughout the study. Twenty-four animals received standard midstriatal infusions of rat TGFα (0.5 μg/day; Sigma Chemical Co.). Another 26 rats received either artificial cerebrospinal fluid (“aCSF”) or no infusion. A subset of animals in the standard TGFα infusion group and the control group received stereotaxic 6-OHDA injections into the substantia nigra 48 hours after the infusions were begun. Animals used in this portion of the study were classified into six groups according to their infusion-lesion combination, as follows: TGFα infusion, lesion (n=13); TGFα infusion, no lesion (n=11); aCSF infusion, lesion (n=12); aCSF infusion, no lesion (n=9); no infusion, lesion (n=1); no infusion, no lesion (n=4).
Additional animals received TGFα infusions into other regions of striatum, the lateral ventricle, cerebral cortex, or the septum. Four more animals (two per group) received midstriatal TGFα infusions at one-half or one-tenth the standard dose. Also, two animals received midstriatal infusions of epidermal growth factor (EGF) instead of TGFα. The EGF administered in these rats was at the standard 0.5 μg/day dose. All of the animals in these extra groups were lesioned. Rats in all of the experiments were typically perfused one to 16 days postlesion (3-18 days of infusion). […] Brain sections were prepared and stained using various immunocytochemical and histochemical techniques.
Rats were anesthetized with 8 mg xylazine and 100 mg ketamine/kg. Infusions of TGFα were provided up to 18 days by Alzet osmotic minipump (2002). The minipumps were filled to about 200 μl with either aCSF for control animals or 20 μg TGFα in 400 μl of aCSF (50 μg/ml) for experimental animals. Under sterile conditions, the infusion cannula was positioned to stereotaxic coordinates (+1.2 A/P; +2.7 M/L; −6.0 D/V) based on Bregma (Paxinos and Watson, The Rat Brain in Stereotaxic Coordinates, Academic Press, San Diego, 1986) and cemented to the top of the skull with dental cement. The infusate was delivered via cannula at approximately 0.5 μl/hour. Some additional control animals received infusions either into the lateral ventricle, the overlying cortex, or other areas.
Forty-eight hours after the minipump implant, rats were anesthetized as above. A chilled 4.8 mg/ml solution of 6-OHDA HCl was prepared immediately prior to injection. […] A 6-8 μl volume was injected at a rate of 1 μl/minute.
Animals were perfused with 500 ml of 4% paraformaldehyde in 0.1 M phosphate buffered saline (PBS; pH 7.4) one to 16 days postlesion and their brains placed into 20% sucrose. The next day, the brains were frozen in isopentane at −20° C. Forty-micron coronal sections were then cut on a freezing microtome into 2% paraformaldehyde in 0.1 M PBS. Continuous sections were taken through the striatum and substantia nigra-VTA. Representative sections were taken through the rest of the brain.
Microtomed brain sections for Nissl staining were mounted onto gelatin-coated slides and allowed to dry overnight. They were then dehydrated and rehydrated through ethanol baths, and placed in Thionin solution for approximately four minutes. The sections were dehydrated through the series of ethanol baths, cleared in successive Histoclear™ washes, and coverslipped. Section were viewed under light microscopy and photographed with Technical Pan Film™ (Kodak, Inc.) at ISO 100 (HC-110 processing for six minutes).
Degenerating fibers and cells of the ridge were labeled using a modification to the Nauta staining method, similar to Procedure I of Fink-Heimer (Giolli and Karamanlidis, In: Neuroanatomical Research Techniques, R. T. Robertson, Ed., pp. 211-240, Academic Press, New York, 1978).

Assay [2] relates to stem and neuroprogenitor cells in the SVZ. Description: Morphological studies of proliferation, directed migration and differentiation induction (Example 3). The format is in vivo, rat. The source says: In situ hybridization histochemistry: TGFα mRNA probes were generated from a 550 nucleotide XbaI/BamHI cDNA fragment from the 5′ end of rat TGFα, subcloned into pGEM 7Zf (Promega, Inc). Antisense and sense probes were transcribed with SP6 and T7 polymerases, respectively. Rat EGF receptor mRNA probes were produced from a 718 base pair BamHI/SphI insert from the 5′ end of the gene in pGEM 7Zf. Probes for rat TH were created using the […] BamHI/EcoRI fragment subcloned into pGEM 7Zf. Antisense subclones for EGF receptor and TH were transcribed with T7 polymerase. Sense subclones for EGF receptor and TH were transcribed with SP6 polymerase. All probes were radiolabeled by transcription in the presence of [35S]UTP (NEN Research, Inc). In situ nucleic acid hybridization was performed according to Simmons (1989) J. Histochem. 12:169-181). Parallel sections from experimental and control animals were hybridized overnight at 65° C. with sense or antisense probes at a concentration of […]. Adjacent sections from the same animals were hybridized to each of the probes so that direct comparison could be made of their anatomical distributions. […] After successful development of the autoradiography film, analysis and quantitation was done using MCID (Imaging Research, Inc).

[3] abbreviates: intracerebroventricular (ICV) infusion ipsilateral to lesion, two weeks.
Setting [4] is: lower doses of TGFα (one-half or one-tenth the standard dose), lesioned.

Turning to “TGFα: transforming growth factor alpha polypeptide, EGF-family growth factor that binds the EGF receptor; infused into rat brain”, the “difference in distance between lateral extents of the ridges and the ventricle wall, 12 vs 16 days of infusion” value in assay [1] (6-OHDA lesion, midstriatal TGFα) is listed as “approximately 1.6 mm”. In addition, the “distance of ventral portion of the ridge from the ventricle wall” value in assay [1] (12 days infusion, 6-OHDA lesion, midstriatal TGFα) was not above 400 μm. Also, the “distance of ventral portion of the ridge from the ventricle” value in assay [1] (16 days infusion, 6-OHDA lesion, midstriatal TGFα) is “up to two mm”. In addition, the “nestin immunostaining of the ridge” value in assay [1] (TGFα infusion fourteen days, lesioned) is “intensely stained”. Further, the “GFAP immunostaining of striatal ridge and cellular expansion” value in assay [1] (TGFα-induced ridge, two weeks of infusion) was “failed to stain”. In assay [1] (cortical infusions slightly penetrating the corpus callosum, two weeks, lesioned), the “expansion of cells along the ipsilateral ventricle” value was “stimulated expansion of cells”. In addition, the “cell density along the lateral ventricle” value in assay [1] (dorsal cortical infusions not penetrating the corpus callosum, two weeks, lesioned) is given as “no discernable effect”. In addition, in assay [1] (setting [3]), the “buildup of cells in the adjacent ventricular wall” value is recorded as “stimulated the buildup of cells” and the “formation of the striatal ridge” value is recorded as “did not induce formation of the striatal ridge”. Further, the “buildup of cells along the ventricle ipsilateral to the infusion (thionin)” value in assay [1] (intrastriatal TGFα infusions of six days or more) was “dramatic buildup of cells”. Also, in assay [1] (setting [4]), the “cellular expansion and ridge formation” value was “induced both the cellular expansion and ridge formation”; the “number of cells in expansion and ridge (qualitative)” value is recorded as “decreased”. In assay [1] (6-OHDA lesion, n=13), the “(incidence of striatal ridge)” value is 92% and the “Expansion (incidence of cellular expansion along ventricle)” value is listed as 100%. Also, in assay [1] (no lesion, n=11), the “(incidence of striatal ridge)” value came out at 27% and the “Expansion (incidence of cellular expansion along ventricle)” value was determined as 100%. Moreover, the “formation of septal ridges” value in assay [1] (septal and some striatal infusions, two weeks, lesioned) was “stimulated the formation of septal ridges”. The “expression of EGFr mRNA in the SVZ” value in assay [2] (6-OHDA lesion and TGF alpha infusion) was “significant increase”. Besides, the “expression of EGFr mRNA in the SVZ” value in assay [2] (TGF alpha infusion, no 6-OHDA lesion) is given as “significant increase”.
